From patent publication US20220047656A1, “SACCHAROMYCES CEREVISIAE YEAST STRAIN FOR THE TREATMENT AND/OR PREVENTION OF OROPHARYNGEAL CANDIDIASIS” (LESAFFRE ET COMPAGNIE, priority 2018, published 2022)

Experiments:
Assay type in all cases: in vivo, C57BL/6 mice
[1] = tested on: IL-1β; assay: ELISA of IL-1β in supernatants of tongue homogenates; settings: vs infected mice treated with saline solution
[2] = tested on: TNF-α; assay: ELISA of TNF-α in supernatants of tongue homogenates; settings: vs infected mice treated with saline solution
[3] = tested on: IL-6; assay: ELISA of IL-6 in supernatants of tongue homogenates

Structure (SMILES): OC(Cn1cncn1)(Cn1cncn1)c1ccc(F)cc1F [FLZ, fluconazole]
- production of IL-1β ([1]; 3 days after infection): considerable inhibition
- production of IL-1β ([1]; 6 days post-infection): significant decrease
- production of TNF-α ([2]; 3 days after infection): considerable inhibition
- production of TNF-α ([2]; 6 days post-infection): significant decrease
- production of IL-6 ([3]; 3 days after infection, otherwise unchanged compared to the untreated mice): exception
- production of IL-6 ([3]; 6 days post-infection, vs infected mice treated with saline solution): significant decrease
